{"source": "patent US8779001B2", "about": "“Stat3 inhibitors” (The United States of America National Institute of Health …, priority 2008, dated 2014)", "key": {"Stat1": {"target": "T1, Stat1 (Homo sapiens, UniProt P42224)", "T1 construct": "endogenous in cells; host or cells: HepG2", "T1 sequence (P42224 1-750)": "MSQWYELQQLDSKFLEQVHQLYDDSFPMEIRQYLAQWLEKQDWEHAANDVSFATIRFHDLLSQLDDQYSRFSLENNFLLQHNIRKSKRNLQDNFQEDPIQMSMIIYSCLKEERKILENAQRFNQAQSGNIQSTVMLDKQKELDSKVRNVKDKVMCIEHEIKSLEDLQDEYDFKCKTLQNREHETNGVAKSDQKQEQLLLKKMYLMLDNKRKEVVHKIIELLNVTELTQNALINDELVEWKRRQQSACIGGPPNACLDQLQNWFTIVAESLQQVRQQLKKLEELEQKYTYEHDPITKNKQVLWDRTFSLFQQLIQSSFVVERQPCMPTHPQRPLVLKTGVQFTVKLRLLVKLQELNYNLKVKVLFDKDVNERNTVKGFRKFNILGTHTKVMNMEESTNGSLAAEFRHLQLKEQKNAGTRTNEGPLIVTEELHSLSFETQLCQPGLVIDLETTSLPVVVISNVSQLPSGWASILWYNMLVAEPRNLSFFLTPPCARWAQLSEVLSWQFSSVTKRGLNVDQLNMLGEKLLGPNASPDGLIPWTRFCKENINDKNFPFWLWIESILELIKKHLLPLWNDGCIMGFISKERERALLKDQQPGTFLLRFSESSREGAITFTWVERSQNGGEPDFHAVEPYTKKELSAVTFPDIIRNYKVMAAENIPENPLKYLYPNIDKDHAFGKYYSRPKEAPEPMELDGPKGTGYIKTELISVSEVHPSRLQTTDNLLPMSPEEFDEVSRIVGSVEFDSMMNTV", "assay": "Immunoblot assay of IFN-γ-stimulated Stat1 phosphorylation in HepG2 cells", "format": "cell-based", "settings": "HepG2, compound 300 μM, 1 hour, IFN-γ 30 ng/ml 30 min", "protocol": "HepG2 cells were pretreated with DMSO alone or DMSO containing each of the compounds at a concentration of 300 μM for 60 min. Cells were then stimulated with IFN-γ (30 ng/ml) for 30 min. Protein extracts of cells were separated by SDS-PAGE and immunoblotted serially with antibodies to pStat1, total Stat1 and β-actin. Blots were stripped between each immunoblotting. The results shown are representative of 2 or more experiments.\nImmunoblot assay. The human hepatocellular carcinoma cell line (HepG2) was grown in 6-well plates under standard conditions. Cells were pretreated with compounds (0, 1, 3, 10, 30, 100 and 300 uM) for 1 hour then stimulated under optimal conditions with either interferon gamma (IFN-γ; 30 ng/ml for 30 min) to activate Stat1 or interleukin-6 (IL-6; 30 ng/ml for 30 min) to activate Stat3 (30-31). Cultures were then harvested and proteins extracted using high-salt buffer, as described (Shao et al., 2006). Briefly, extracts were mixed with 2× sodium dodecyl sulfate (SDS) sample buffer (125 mmol/L Tris-HCL pH 6.8; 4% SDS; 20% glycerol; 10% 2-mercaptoethanol) at a 1:1 ratio and heated for 5 minutes at 100° C. Proteins (20 μg) were separated by 7.5% SDS-PAGE and transferred to polyvinylidene fluoride (PVDF) membrane (Millipore, Waltham, Mass.) and immunoblotted. Prestained molecular weight markers (Biorad, Hercules, Calif.) were included in each gel. Membranes were probed serially with antibody against Stat1 pY^701 or Stat3 pY^705 followed by antibody against Stat1 or Stat3 (Transduction labs, Lexington, Ky.) then antibody against β-actin (Abeam, Cambridge, Mass.). Membranes were stripped between antibody probing using Restore™ Western Blot Stripping Buffer (Thermo Fisher Scientific Inc., Waltham, Mass.) per the manufacturer's instructions. Horseradish peroxidase-conjugated goat-anti-mouse IgG was used as the secondary antibody (Invitrogen Carlsbad, Calif.) and the membranes were developed with enhanced chemiluminescence (ECL) detection system (Amersham Life Sciences Inc.; Arlington Heights, Ill.).\nWhile Stat3 contributes to oncogenesis, in part, through inhibition of apoptosis, Stat1 is anti-oncogenic; it mediates the apoptotic effects of interferons and contributes to tumor surveillance (Kaplan et al., 1998; Ramana et al., 2000). Consequently, compounds that target Stat3 while sparing Stat1, leaving its anti-oncogenic functions unopposed, may result in a synergistic anti-tumor effect. […] Thus, five of the six exemplary compounds identified were selective and inhibited ligand-stimulated phosphorylation of Stat3 but not Stat1.\nEXP IIC. Ligand-mediated pStat3 and pStat1 inhibition assays. […] Briefly, human hepatocellular carcinoma cells (HepG2) are grown in 6-well plates and pretreated with compounds (0, 0.1, 0.3, 1, 3, 10, 30, 100 μM) for 1 hour then stimulated under optimal conditions with either interleukin-6 (IL-6; 30 ng/ml for 30 min) to activate Stat3 or interferon gamma (IFN-γ, 30 ng/ml for 30 min) to activate Stat1. Cells are harvested and proteins extracted using high-salt buffer, mixed with 2× sodium dodecyl sulfate (SDS) sample buffer (125 mmol/L Tris-HCL pH 6.8; 4% SDS; 20% glycerol; 10% 2-mercaptoethanol) at a 1:1 ratio then heated for 5 minutes at 100° C. Proteins (20 μg) are separated by 7.5% SDS-PAGE and transferred to polyvinylidene fluoride (PVDF) membrane (Millipore, Waltham, Mass.) and immunoblotted. Membranes are probed serially with antibody against Stat1 pY701 or Stat3 pY705 followed by antibody against Stat1 or Stat3 (Transduction labs, Lexington, Ky.) then antibody against β-actin (Abcam, Cambridge, Mass.). Membranes are stripped between antibody probings using Restore™ Western Blot Stripping Buffer (Thermo Fisher Scientific Inc., Waltham, Mass.) per the manufacturer's instructions. […]"}, "Stat3:hSIE complexes": {"target": "T2, Stat3:hSIE complexes (Homo sapiens, UniProt P40763)", "T2 construct": "endogenous in cells; host or cells: HepG2", "T2 sequence (P40763 2-770 limits assumed, one chain of several)": "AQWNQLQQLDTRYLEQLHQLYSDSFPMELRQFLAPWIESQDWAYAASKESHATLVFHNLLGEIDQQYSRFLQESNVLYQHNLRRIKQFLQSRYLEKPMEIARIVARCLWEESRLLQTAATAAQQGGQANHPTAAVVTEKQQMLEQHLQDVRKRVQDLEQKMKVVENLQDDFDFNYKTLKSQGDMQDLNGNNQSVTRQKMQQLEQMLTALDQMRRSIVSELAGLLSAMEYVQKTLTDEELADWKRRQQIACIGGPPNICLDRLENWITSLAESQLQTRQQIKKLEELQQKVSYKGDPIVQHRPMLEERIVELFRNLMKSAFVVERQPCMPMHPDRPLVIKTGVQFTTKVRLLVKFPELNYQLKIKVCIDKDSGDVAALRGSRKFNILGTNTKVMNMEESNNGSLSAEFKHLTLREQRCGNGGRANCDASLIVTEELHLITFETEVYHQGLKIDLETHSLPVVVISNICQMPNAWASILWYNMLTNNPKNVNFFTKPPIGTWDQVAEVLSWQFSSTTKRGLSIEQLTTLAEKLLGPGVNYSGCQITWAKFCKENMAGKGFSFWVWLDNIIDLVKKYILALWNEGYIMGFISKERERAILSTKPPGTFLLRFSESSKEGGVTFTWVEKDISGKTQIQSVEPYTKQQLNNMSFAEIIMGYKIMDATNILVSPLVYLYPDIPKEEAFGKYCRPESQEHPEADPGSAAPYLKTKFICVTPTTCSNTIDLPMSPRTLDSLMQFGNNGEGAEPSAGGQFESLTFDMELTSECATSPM", "assay": "Electrophoretic mobility shift assay (EMSA) of Stat3 DNA binding", "format": "biochemical", "settings": "extracts of IL-6-stimulated HepG2 cells, compound 300 μM, 60 minutes at 37° C", "protocol": "Electrophoretic mobility shift assays were performed using whole-cell extracts prepared from HepG2 cells without and with stimulation with IL-6 (30 ng/ml) for 30 min. Protein (20 μg) was incubated with radiolabeled duplex oligonucleotide (hSIE) and DMSO without or with the indicated compounds (300 uM) for 60 minutes at 37° C. then separated by PAGE. The gel was dried and autoradiographed; the portion of the gel corresponding to the Stat3-bound hSIE band is shown. Data shown are representative of 2 studies.\nElectrophoretic Mobility Shift Assay (EMSA): EMSA was performed using the hSIE radiolabeled duplex oligonucleotide as a probe as described (Tweardy et al., 1995). Briefly, high salt extracts were prepared from HepG2 cells incubated without or with IL-6 (30 ng/ml) for 30 minutes. Protein concentration was determined by Bradford Assay and 20 ug of extract was incubated with compound (300 uM) for 60 minutes at 37° C. […] Gels were dried and autoradiographed.\nOnce in the nucleus, Stat3 dimers bind to specific DNA elements to activate and, in some instances, repress gene transcription. […] Compounds that bind to the phosphopeptide-binding site of Stat3 might be expected to do the same. […]"}, "Stat3": {"target": "Stat3 (Homo sapiens, UniProt P40763)", "sequence (P40763 whole entry)": "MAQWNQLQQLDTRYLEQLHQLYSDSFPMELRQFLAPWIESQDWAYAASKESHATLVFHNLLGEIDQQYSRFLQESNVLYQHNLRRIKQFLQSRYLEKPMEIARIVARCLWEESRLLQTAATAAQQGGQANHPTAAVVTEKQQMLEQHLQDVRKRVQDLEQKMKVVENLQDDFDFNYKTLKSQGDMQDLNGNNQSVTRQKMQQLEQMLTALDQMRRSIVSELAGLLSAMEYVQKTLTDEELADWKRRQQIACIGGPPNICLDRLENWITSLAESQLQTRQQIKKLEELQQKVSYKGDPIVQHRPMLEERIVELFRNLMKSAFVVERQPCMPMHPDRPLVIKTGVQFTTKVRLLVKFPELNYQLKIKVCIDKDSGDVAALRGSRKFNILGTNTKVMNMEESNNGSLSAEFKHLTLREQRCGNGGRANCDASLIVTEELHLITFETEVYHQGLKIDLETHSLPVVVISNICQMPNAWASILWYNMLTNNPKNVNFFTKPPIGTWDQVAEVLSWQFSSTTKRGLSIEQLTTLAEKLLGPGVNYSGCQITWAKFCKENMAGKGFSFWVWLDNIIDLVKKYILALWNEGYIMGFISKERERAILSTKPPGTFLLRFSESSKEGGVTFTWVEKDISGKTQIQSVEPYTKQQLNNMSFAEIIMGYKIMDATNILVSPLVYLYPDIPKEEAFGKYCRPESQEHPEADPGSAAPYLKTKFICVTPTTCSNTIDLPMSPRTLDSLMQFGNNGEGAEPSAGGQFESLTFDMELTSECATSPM", "settings": "fluorescence polarization, Coleman et al., 2005; read-out: IC50 inhibition of Stat3 binding to pY-peptide; cited from earlier work"}, "breast cancer cell lines": {"tested_on": "breast cancer cell lines", "assay": "Breast cancer cell line apoptosis assay, statements over several cell lines", "format": "cell-based, human", "settings": "five breast cancer cell lines", "protocol": "MDA-MB-468 (panel A), MDA-MB-231 (panel B), MDA-MB-435 (panel C), MCF7 (panel D) and MDA-MB-453 (panel E) were seeded in 12-well plates, grown overnight then treated with the indicated compound for 24 hr. Cells were centrifuged and the supernatants assayed for nucleosome levels by ELISA.\nHuman breast carcinoma cell lines MDA-MB-468, MDA-MB-231, MBA-MD-435 and MCF7 were kindly provided by Dr. Powel H. Brown (Breast Cancer Center, Baylor College of Medicine). Breast cancer cell line, MDA-MB-453 was kindly provided by Dr. Shou Jiang (Breast Cancer Center, Baylor College of Medicine). […] Cells were seeded at 2,500 cells/cm^2 into 12-well plates. […] At 24 hours, treatment was terminated by removing the medium from each well. […] The percent maximum nucleosome level was calculated by dividing the nucleosome level by the maximum nucleosome level achieved in the assay and multiplying by 100."}, "[1]": {"tested_on": "breast cancer cells with constitutively activated Stat3", "settings": "Schust et al., 2006; cited from earlier work"}, "[2]": {"tested_on": "triple negative human breast cancer xenograft", "assay": "Two-day pilot triple-negative human breast cancer xenograft experiment, MSFE measured", "format": "in vivo, SCID Beige mice", "settings": "250 mcg, two days of treatment, P<0.05", "text": "The mice were sacrificed after two days and MSFE measured.\nA tumor line derived from a “triple negative” (ER-negative, PgR-negative, and HER-2 negative) human breast cancer biopsy specimen was transplanted into immunocompromised SCID Beige mice. The animals (n=3) received two doses of vehicle control, 2 different doses of Cpd 188 (125 or 250 mcg), a G-quartet oligodeoxynucleotide (GQ-ODN, T40214; GQ-I) previously determined to target Stat3 (Jing et al., 2004) and a control non-specific ODN (GQ-II) each at two doses (125 or 250 mcg). The animals were sacrificed after only two days of treatment, and MSFE determined."}}}
{"compound": "O=C(O)c1ccc(C=CC(=O)c2ccc3c(c2)OCCO3)cc1", "note": "[Cpd3, 4-[3-(2,3-dihydro-1,4-benzodioxin-6-yl)-3-oxo-1-propen-1-yl]benzoic acid]", "values": [{"measurement": "effect on IFN-γ-stimulated Stat1 phosphorylation", "setting": "Stat1", "result": "did not"}, {"measurement": "effect on Stat3:hSIE band intensity (EMSA)", "setting": "Stat3:hSIE complexes", "result": "reduced the amount of hSIE shifted by half or greater"}]}
{"compound": "hydrocinnamoyl-Tyr(PO3H2)-Leu-cis-3,4-methanoPro-Gln-NHB", "values": [{"measurement": "IC50", "setting": "Stat3", "result": 125, "unit": "nM"}]}
{"compound": "CCN1C(=O)C(=Cc2ccc(-c3cc(C(=O)O)ccc3Cl)o2)C(=O)N(CC)C1=S", "note": "[Cpd30-12, 4-chloro-3-{5-[(1,3-diethyl-4,6-dioxo-2-thioxotetrahydro-5(2H)-pyrimidinylidene)methyl]-2-furyl}benzoic acid]", "values": [{"measurement": "effect on IFN-γ-stimulated Stat1 phosphorylation", "setting": "Stat1", "result": "blocked Stat1 phosphorylation"}]}
{"compound": "CCOc1cc(C=C2C(=O)c3ccccc3C2=O)cc(Cl)c1OCc1cccc(C(=O)O)c1", "note": "[Cpd3-2, 3-({2-chloro-4-[(1,3-dioxo-1,3-dihydro-2H-inden-2-ylidene)methyl]-6-ethoxyphenoxy}methyl)benzoic acid]", "values": [{"measurement": "effect on IFN-γ-stimulated Stat1 phosphorylation", "setting": "Stat1", "result": "did not"}, {"measurement": "induction of apoptosis of any of the breast cancer cell lines tested", "setting": "breast cancer cell lines", "result": "neither Cpd3-2 nor Cpd3-7 induced apoptosis"}]}
{"compound": "O=[N+]([O-])c1ccc2c(c1)S(=O)(=O)C=C2", "note": "[Stattic]", "values": [{"measurement": "concentration range inducing apoptosis / Stat3 inhibitory effects", "setting": "[1]", "result": "5 to 20", "unit": "µM"}]}
{"compound": "O=C(O)CSc1cc(NS(=O)(=O)c2ccc(C(=O)O)cc2)c2ccccc2c1O", "note": "[Cpd188, 4-[({3-[(carboxymethyl)thio]-4-hydroxy-1-naphthyl}amino)sulfonyl]benzoic acid]", "values": [{"measurement": "effect on IFN-γ-stimulated Stat1 phosphorylation", "setting": "Stat1", "result": "did not"}, {"measurement": "reduction in MSFE compared to control", "setting": "[2]", "result": "significant reduction in MSFE"}]}
{"compound": "CCN1C(=O)C(=Cc2ccc(-c3ccc(C(=O)O)cc3)o2)SC1=S", "note": "[Cpd30, 4{5-[(3-ethyl-4-oxo-2-thioxo-1,3-thiazolidin-5-ylidene)methyl]-2-furyl}benzoic acid]", "values": [{"measurement": "effect on IFN-γ-stimulated Stat1 phosphorylation", "setting": "Stat1", "result": "did not"}]}
{"compound": "COC(=O)Cc1c(C)c2ccc(OCc3ccc(C(=O)OC)cc3)c(C)c2oc1=O", "note": "[Cpd3-7, methyl 4-({[3-(2-methyoxy-2-oxoethyl)-4,8-dimethyl-2-oxo-2H-chromen-7-yl]oxy}methyl)benzoate]", "values": [{"measurement": "effect on IFN-γ-stimulated Stat1 phosphorylation", "setting": "Stat1", "result": "did not"}, {"measurement": "effect on Stat3:hSIE band intensity (EMSA)", "setting": "Stat3:hSIE complexes", "result": "reduced the amount of hSIE shifted by half or greater"}, {"measurement": "induction of apoptosis of any of the breast cancer cell lines tested", "setting": "breast cancer cell lines", "result": "neither Cpd3-2 nor Cpd3-7 induced apoptosis"}]}
